The record followed here is article PMC7297445, “Pharmacokinetic/Pharmacodynamic Determination and Preclinical Pharmacokinetics of the β-Lactamase Inhibitor ETX1317 and Its Orally Available Prodrug ETX0282” (ACS Infectious Diseases, 2020).

The subject of series [1] is Enterobacteriaceae isolates. The series can be described thus: Hollow-fiber and chemostat models, strains combined. Format: cell-based, E. coli, K. pneumoniae. Here is the method:
The PK/PD driver of ETX1317 was assessed in the presence of CPD in both hollow-fiber[28]−[31] and chemostat[32]in vitro infection model systems. In all cases, CPD was administered q12h via a 2 h infusion and eliminated with a 2 h half-life, with the concentration of drug exceeding the MIC (the MIC of CPD in the presence of ETX1317 at a 1:2 ratio) for 50% of the dosing interval for each strain. Representative Emax plots are shown graphically for Escherichia coli ARC2687 in the hollow-fiber model and Klebsiella pneumoniae ARC4420 in the chemostat system (Figure 2). […] This could partially be attributed to the distribution of the concentration ranges utilized for the hollow-fiber infection model (HFIM) where most of the data scatter occurred in the efficacious dose range for lower MIC strains. It is important to note that initial evaluation of K. pneumoniae ARC4420 and ARC5118 was completed in the HFIM but rapid degradation of CPD, presumably through accumulation of β-lactamases in the extra-capillary space of the cartridge precluded a reliable assessment of the PK/PD driver with these strains in this model.[32] […] In both the HFIM and chemostat models the optimum critical threshold of ETX1317 was established through iterative Emax fitting of a range of ETX1317 concentrations from 0.5× to 2× the CPD:ETX1317 MIC value. In the HFIM, %Time > ETX1317 CT of 2× MIC provided the highest correlation to observed activity which appeared to be independent to the apparent intrinsic activity of ETX1317 (as reflected by ETX1317 MICBLI of K. pneumoniae ARC4486 vs ARC4488). […] In both models CPD infused alone mimicked vehicle control as expected with similar growth of +2 to 4 log10 CFU/mL.
PK/PD-derived exposure targets for BLIs have utilized various approaches for clinical dose setting. The use of a singular critical threshold value independent of MIC has been used for recent BL/BLI combinations such as ceftazidime/avibactam[34] aztreonam/avibactam,[35] but this has been problematic to correlate activity across a broad range of MICs. More recent work with ceftolozane/tazobactam[36] and other BLI combinations[37],[38] considers a critical threshold value that varies proportionally to the MIC value. […] Convergence of the data to a threshold value related to MIC simplifies dose setting and, in this case, appears to be consistent across a broad range of susceptibility (0.125–1 μg/mL).
Dose range and dose fractionation were performed in hollow-fiber infection model (HFIM) and chemostat (one-compartment) in vitro infection model. […] CPD concentrations were targeted to achieve exposure of ∼50%Time > MIC determined in the presence of ETX1317. […] Bacterial burden (CFU/mL) was serially assessed by sampling (500 μL) from the extra-capillary space of the HFIM cartridge at predetermined time points. […]

The next series can be described thus: Plasma protein binding. Format: in vitro ADME, dog. Here is the method:
Plasma protein binding was determined by rapid equilibrium dialysis. Plasma was freshly prepared from blood samples drawn in to EDTA (anticoagulant) containing tubes. Plasma was prepared using a table-top centrifuge and spun per instruction of the tube manufacturer and specifications (Beckton, Dickinson and Company, Franklin Lakes, NJ) and placed on ice prior to use.
Pooled plasma samples were centrifuged at 2000 rpm (approximately 1400g) for 15 min at 4 °C to remove debris. Approximately 90% of the clear supernatant fraction was transferred to a separate tube. Samples (500 μL) were then spiked with a 100× stock solution 100 μM, 0.5 mM, and 10 mM ETX1317 in DMSO respectively for 1, 5, and 100 μM final concentrations, transferred to the top of the filter chambers, and allowed to equilibrate for 15 min prior to centrifugation. The filtrate tubes were centrifuged at 14000g for 15 min at 4 °C. Next, 50 μL of the filtrate was precipitated with 300 μL of acetonitrile containing 250 ng/mL of carbutamide as the internal standard and the samples were analyzed by LC/MS/MS analysis.

Regarding `CC1=C[C@@H](C(N)=O)N2C[C@@H]1N(O[C@H](F)C(=O)O)C2=O` [ETX1317], the growth result in series [1] (infused alone q12h to a Cmax of 16 μg/mL, 100%Time > MICBLI) is on record as “+0.5 log”. In series [1] (with CPD), the “% of dosing interval with unbound concentration > 2× MIC associated with reducing bacterial burden below stasis” value stood at 50%. Moreover, in series [1] (with CPD 50%Time > MIC, in vitro and in vivo models), the “% of dosing interval with concentration > 2× MIC for cidal activity” value is reported as 60%. Further, the Proportion unbound in the series “Plasma protein binding” (1 µM) is recorded as 92%; in the series “Plasma protein binding” (5 µM), 100%; in “Plasma protein binding” (100 µM), 81%.
